Data: paper PMC2567432 (PLoS ONE, 2008)

How the values were obtained:
[1] = system: IL-1β release from LPS-stimulated blood cells; test: Whole blood assay, LPS-induced IL-1β release (cytometric bead array); type: cell-based; details: Homo sapiens; heparinized whole blood, LPS 10 ng/ml, 6 h, 37°C
Experimental: Figure 2 Effect of polyphenols on IL-1β release from LPS-stimulated blood cells. Heparinized whole blood was stimulated by LPS in the absence or presence of polyphenols at increasing concentrations and incubated for 6 h at 37°C with 5% CO2. (A) Released IL-1β as measured in cell supernatants. Samples without additives but LPS were set at 100%. (B) The calculated […] values of the respective polyphenols. Data represent mean±S.D. of independent experiments (n = 6).
Whole blood assay was performed as previously described. Accordingly, LPS (10 ng/ml), test substances and 200 µl heparinized human blood of healthy donors, obtained from the blood bank of the University of Leipzig, were co-incubated with serum-free medium (RPMI-SF, 1 ml final volume) in 24-well culture plates for 6 h at 37°C with 5% CO2. Samples were removed, centrifuged at 2000×g for 10 min and supernatants were stored at −20°C until assaying for inflammatory cytokines.
Assessment of cytokine levels in supernatants of human blood cell cultures was accomplished using Cytometric Bead Array (CBA™, BD Biosciences, San Jose, U.S.A). The procedure was carried out according to the manufacturer's instruction. Fluorescence measurement and analysis were performed using a FACSCalibur and the CellQuest software (BD Biosciences).

[2] = system: breast cancer JIMT-1 cells; test: Cell proliferation WST-1 assay, JIMT-1; type: cell-based, human
Experimental: (§1) Figure 3 Growth inhibition of different tumor cell lines by polyphenols. […] Following 24-h incubation, cell proliferation was evaluated using the WST-1 assay.
(§2) Tumor cells were cultured in RPMI medium containing 10% fetal calf serum (RPMI-FCS) (PC-3, JIMT-1, MDA-MD 231) or in DMEM-FCS (astrocytoma 1321N1 cells) containing penicillin/streptomycin (100 U penicillin/ml; 100 µg streptomycin/ml) at 37°C/5% CO2. Cytosolic protein extracts of tumor cells were prepared using extraction buffer composed of 25 mM Tris, 2 mM EDTA, 10% Glycerol, 1% Triton ×100, 2 mM DTT, 1mM PMSF, pH. 7.0 containing 0.3% protease inhibitor cocktail. Protein content was determined according to Bradford. Specific activity of enzymes analyzed in cell extracts was expressed as U/mg protein.
(§3) Cell proliferation/vitality of tumor cells (96-well plates; 5000 cells/well) and primary human hepatocytes (24-well plates; 0.25×10^6 cells/well) was assayed using the WST-1 assay according to manufacturer's instructions. Trypan blue exclusion was performed by staining cells with 0.4% aqueous trypan blue solution according to the manufacturer's instructions.

[3] = system: breast cancer MDA-MB-231 cells; test: Cell proliferation WST-1 assay, MDA-MB-231; type: cell-based, human; details: MDA-MB-231, 24 h
Experimental: as §1, §2, §3

1321N1 cells [4] = test: Cell vitality by trypan blue exclusion; type: cell-based; details: 50 µM, 6-h incubation; control 95.6%±2.5%
1321N1 cells [5] = test: L-LDH release into cell supernatants; type: cell-based; details: 50 µM
Experimental: Tumor cells were cultured and treated as mentioned in Fig. 3. (A) LDH activity was measured in cell supernatants. (B) Cell vitality as assayed by the trypan blue exclusion test. Data represent the mean±S.D. of independent experiments (n = 6).
(§4) LDH activity was spectrophotometrically assayed in the cytosolic extract or in the of cell cultures by adding aliquots to 1 ml reaction buffer (50 mM Na2HPO4, pH 7.0, 0.15 mM NADH, and 0.3 mM pyruvate). Enzyme activity was recorded at 340 nm.

Glo1 in JIMT-1 cells [6] = system: T1, Glo1 in JIMT-1 cells; test: Specific Glo1 activity in cytosolic extract of treated cells; type: cell-based, human; details: JIMT-1, 24 h
T1 construct: endogenous in cells; host or cells: JIMT-1 breast carcinoma cells (ACC 589; DSMZ)
Experimental: Cells were harvested and the specific activity of Glo1 and LDH was determined in the cytosolic extract. (B) Semi-quantitative analysis of protein content as performed by Western blot using specific antibodies against β-actin and Glo1. The blot was developed by chemoluminescense detection. […] Data represent the mean±S.D. of independent experiments (n = 6). Tumor cells were cultured in RPMI medium containing 10% fetal calf serum (RPMI-FCS) (PC-3, JIMT-1, MDA-MD 231) or in DMEM-FCS (astrocytoma 1321N1 cells) containing penicillin/streptomycin (100 U penicillin/ml; 100 µg streptomycin/ml) at 37°C/5% CO2. Cytosolic protein extracts of tumor cells were prepared using extraction buffer composed of 25 mM Tris, 2 mM EDTA, 10% Glycerol, 1% Triton ×100, 2 mM DTT, 1mM PMSF, pH. 7.0 containing 0.3% protease inhibitor cocktail. Protein content was determined according to Bradford. Specific activity of enzymes analyzed in cell extracts was expressed as U/mg protein. […] The inhibition constant, Ki value of the inhibitors was evaluated by Dixon plot showing the reciprocal of enzyme velocity against the inhibitor concentration at variable concentrations of the substrate. Human Glo2 (E.C.3.1.2.6) was measured using the substrate S-lactoylglutathione as described earlier.

Glo1 in JIMT-1 cells [7] = test: Glo1 protein content by Western blot; type: cell-based, human; details: JIMT-1, 24 h
Experimental: (§5) Cells were harvested and the specific activity of Glo1 and LDH was determined in the cytosolic extract. (B) Semi-quantitative analysis of protein content as performed by Western blot using specific antibodies against β-actin and Glo1. The blot was developed by chemoluminescense detection. […] Data represent the mean±S.D. of independent experiments (n = 6).
An amount of 20 µg to 40 µg of cytosolic extract was loaded to SDS-pore gradient gels (4 to 20%) and run under reducing conditions. Proteins were blotted to cellulose nitrate membranes (Whatman Schleicher & Schuell, Dassel, Germany) and Glo1 was detected by anti-Glo1 monoclonal antibodies (1 µg/ml) (BioMac, Leipzig, Germany) in combination with goat anti-mouse Ig-HRP (1∶1000) (Dako, Hamburg, Germany). For comparison, β-actin was analyzed using rabbit anti-β-actin Ig (1∶2000) (Acris, Hiddenhausen, Germany) in conjunction with HRP-labeled goat anti-rabbit Ig (Dianova, Hamburg, Germany). Band visualization was performed by chemiluminescence detection (Boehringer, Mannheim, Germany).

LDH in JIMT-1 cells = test: LDH activity in cytosolic extract of treated cells; type: cell-based, human; details: JIMT-1, 24 h
Experimental: as §5, §4

astrocytoma 1321N1 cells = test: D-lactate release into medium; type: cell-based; details: 1321N1, 20 µM curcumin, 24 h; control 34.6±6 µM
Experimental: as §5
The determination of D-lactate and L-lactate in supernatants of astrocytoma 1321N1 cells was performed by an enzymatic method based on the oxidation of L-lactate and D-lactate to pyruvate by NAD in the presence of L-LDH or D-LDH[63].

LDH = LDH activity measurement, interference check; type: biochemical; details: spectrophotometric, 340 nm
Experimental: as §4

COc1cc(C=CC(=O)CC(=O)C=Cc2ccc(O)c(OC)c2)ccc1O [curcumin, 1,7-bis(4-hydroxy-3-methoxyphenyl)-1,6-heptadiene-3,5-dione]
IC50 [1]: 7.9 µM | inhibition at 50 µM ([2]; Homo sapiens, JIMT-1, 50 µM, 24 h): ~30% | concentration giving strong anti-proliferative effects ([2]; JIMT-1, 24 h, WST-1): above 50 µM | concentration giving strong anti-proliferative effects [3]: above 50 µM | percentage of vital cells (trypan blue exclusion) (1321N1 cells [4]): 89.5%±2.5% | L-LDH release (1321N1 cells [5]; 6-h incubation): not significantly increased | LDH release (1321N1 cells [5]; 24-h incubation): increased | specific Glo1 activity in treated cells (Glo1 in JIMT-1 cells [6]): decreased dose-dependently | Glo1 protein content (Western blot) (Glo1 in JIMT-1 cells [7]): no alteration | LDH activity in cytosolic extract (LDH in JIMT-1 cells): increased at higher curcumin concentrations | D-lactate concentration in the medium (astrocytoma 1321N1 cells): 22 ± 1.9 µM | effect on LDH enzyme activity in the assay (LDH): not affected
